The source of these data is US20100317734A1, “FREE FATTY ACID BLENDS AND USE THEREOF” (priority 2007, published 2010).

This assay has as its system Staphylococcus aureus. In words: Contact viability assay, 2 minutes exposure. The format is cell-based. The note with it: on its own. The procedure:
The assay was conducted in glass tubes and all test components were equilibrated at the teat temperature in a water bath before inoculation and during the suspension period (2 minutes). The inoculum is an 18 hour culture of Staphylococcus aureus grown in Brain Heart Infusion Broth. The reduction in CFU's are illustrated in FIG. 4. FIG. 7 illustrates the antimicrobial effect of emulsions of caprylic:oleic, capric:oleic and lauric:oleic with varying concentration in oleic acid. The emulsions were prepared by method 2 in Example 3.

As for `CCCCCCCC/C=C\CCCCCCCC(=O)O` [oleic acid], the antimicrobial effect result was “no significant antimicrobial effect”.
